Molecular target: Methionine aminopeptidase 2 (Plasmodium falciparum, UniProt Q8TA23)
Assay: Enzyme Inhibiton Assay
From the text: (§1) Enzyme affinity assay using Fumarranol analogs with plasmodium falciparum methionine aminopeptidases (PfMetAPs).

Sequence of Methionine aminopeptidase 2 (Q8TA23 whole entry): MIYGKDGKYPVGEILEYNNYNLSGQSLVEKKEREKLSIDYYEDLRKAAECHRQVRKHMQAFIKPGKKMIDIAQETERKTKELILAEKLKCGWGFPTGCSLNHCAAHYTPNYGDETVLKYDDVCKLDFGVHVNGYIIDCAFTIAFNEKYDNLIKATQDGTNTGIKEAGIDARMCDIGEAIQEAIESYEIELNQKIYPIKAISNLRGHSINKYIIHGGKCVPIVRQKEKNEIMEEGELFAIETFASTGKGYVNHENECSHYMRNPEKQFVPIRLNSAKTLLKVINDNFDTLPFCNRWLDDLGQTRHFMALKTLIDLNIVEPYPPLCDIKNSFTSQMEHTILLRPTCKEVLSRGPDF

| SMILES | IC50 |
| --- | --- |
| CO[C@@H]1[C@H](OC(=O)NC(=O)CCl)CC[C@]2(CO2)[C@H]1[C@@]1(C)O[C@@H]1CC=C(C)C [(3R,4S,5S,6R)-5-methoxy-4-[(2R,3R)-2-methyl-3-(3-methylbut-2-en-1-yl)oxiran-2-yl]-1-oxaspiro[2.5]octan-6-yl N-(2-chloroacetyl)carbamate] | 2 µM |
| CO[C@]12C(=O)CC[C@@]1(CBr)C2[C@@]1(C)O[C@@H]1CC=C(C)C (some centres not stated) [Fumarranol Analog, 6] | > 500 µM |
| CO[C@]12C(=O)CC[C@@]1(C=O)C2[C@@]1(C)O[C@@H]1CC=C(C)C (some centres not stated) [Fumarranol Analog, 7] | > 500 µM |
| CO[C@]12C(=O)CC[C@@]1(CO)C2/C(C)=C/CC=C(C)C (some centres not stated) [Fumarranol Analog, 8] | > 500 µM |
| CO[C@]12C(=O)/C(=C/c3ccco3)C[C@@]1(CO)C2[C@@]1(C)O[C@@H]1CC=C(C)C (some centres not stated) [Fumarranol Analog, 9] | > 500 µM |
| CO[C@@]12C([C@@]3(C)O[C@@H]3CC=C(C)C)[C@]1(CO)CC[C@H]2O (some centres not stated) [Fumarranol Analog, 10] | > 500 µM |

Molecular target: T1, Methionine aminopeptidase (Plasmodium falciparum Santa Lucia, UniProt W7G645)
T1 sequence (W7G645 whole entry): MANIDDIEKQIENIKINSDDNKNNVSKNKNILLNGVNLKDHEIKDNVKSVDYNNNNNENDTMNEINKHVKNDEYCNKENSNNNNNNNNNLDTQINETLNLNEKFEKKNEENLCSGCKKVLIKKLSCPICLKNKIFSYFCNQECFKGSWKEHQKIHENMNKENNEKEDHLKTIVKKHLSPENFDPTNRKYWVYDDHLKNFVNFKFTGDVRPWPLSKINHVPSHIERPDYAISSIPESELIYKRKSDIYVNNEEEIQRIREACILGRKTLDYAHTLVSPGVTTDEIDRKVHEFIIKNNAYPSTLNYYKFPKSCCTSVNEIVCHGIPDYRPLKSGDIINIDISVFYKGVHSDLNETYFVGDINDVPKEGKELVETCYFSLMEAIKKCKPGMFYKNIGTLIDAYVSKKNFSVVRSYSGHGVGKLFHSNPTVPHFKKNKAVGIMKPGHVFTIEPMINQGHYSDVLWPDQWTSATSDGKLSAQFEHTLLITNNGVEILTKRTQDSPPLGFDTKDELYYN
Assay: Enzyme Inhibiton Assay
From the text: as §1

| SMILES | IC50 |
| --- | --- |
| CO[C@@H]1[C@H](OC(=O)NC(=O)CCl)CC[C@]2(CO2)[C@H]1[C@@]1(C)O[C@@H]1CC=C(C)C [(3R,4S,5S,6R)-5-methoxy-4-[(2R,3R)-2-methyl-3-(3-methylbut-2-en-1-yl)oxiran-2-yl]-1-oxaspiro[2.5]octan-6-yl N-(2-chloroacetyl)carbamate] | > 300 µM |
